{
  "source": "patent US20250302780A1",
  "about": "“METHOD OF TREATING PREMATURE EJACULATION IN HUMAN MALES WITHOUT SYMPTOMS OF BENIGN PROSTATIC HYPERTROPHY (BPH) USING TAMSULOSIN 0.2MG QOD WHICH DELAYS EJACULATION BY REDUCING THE RATE OF SECRETION AND TRANSPORT BY SEMINAL VESICLES AND PROSTATE IN THE GENITOURINARY TRACT” (Wustashire, priority 2024, published 2025)",
  "key": {"[1]": {"assay": "Focused analysis of published BPH/LUTS studies: risk of abnormal ejaculation (anejaculation or significantly reduced ejaculate) with tamsulosin", "assay_type": "in vivo, human", "protocol": "To objectively determine an effective tamsulosin dose for treating premature ejaculation in patients without benign prostatic hypertrophy (BPH), a focused analysis of relevant well designed research studies that examined the abnormal ejaculation side effects of tamsulosin in BPH treatment based on combined data derived from multiple sources was conducted (www.accessdata.fda.gov, n.d.; Soliman et al, 2023; Shim et al., 2016). […] These studies focused on evaluating tamsulosin treatment outcomes in patients with BPH and lower urinary tract symptoms (LUTS). The analysis leveraged the identical mechanism of action of tamsulosin in both BPH/LUTS and premature ejaculation with respect to non-vascular smooth muscle relaxation in the genitourinary tract.\nThe graph plots administered tamsulosin quantity in mg on the x-axis against the calculated percentage risks of these dysfunctional sequelae on the y-axis.\nFurther, the FIG. 4 illustrates test data on calculated risk of abnormal or adverse ejaculatory side effects at different dosages. […] Quantitative data points are shown for tamsulosin at doses of 0.8 mg, 0.4 mg, and 0.2 mg taken either on a daily (QD) basis or every other day (QOD)."}, "[2]": {"conditions": "cited from earlier work"}, "[3]": {"conditions": "0.2 mg QD, after 8 weeks (Zhang et al.); cited from earlier work"}, "[4]": {"conditions": "cited from earlier work", "remark": "listed apart in the source"}},
  "note": "Where two headings read alike, the source gives them in different places.",
  "data": [
    {"compound": "CCOc1ccccc1OCCN[C@H](C)Cc1ccc(OC)c(S(N)(=O)=O)c1", "note": "[tamsulosin]", "values": [
      {"measurement": "risk of ejaculatory sequelae", "setting": "[1]; 0.4 mg QOD (every other day), calculated from 5-fold reduction", "result": 1.68, "unit": "%"},
      {"measurement": "drop in abnormal ejaculatory risk likelihood", "setting": "[1]; dose reduction 0.4 mg QD to 0.2 mg QD", "result": "~2.15", "unit": "fold"},
      {"measurement": "reduction of projected abnormal ejaculatory risk", "setting": "[1]; halving 0.8 mg QD to 0.4 mg QD", "result": 53.6, "unit": "%"},
      {"measurement": "risk of abnormal or adverse ejaculatory side effects", "setting": "[2]; 0.4 mg QD (daily)", "result": 8.4, "unit": "%"},
      {"measurement": "abnormal ejaculatory risk reduction", "setting": "[2]; 0.4 mg converted from QD to QOD (Soliman et al.)", "result": 5, "unit": "fold"},
      {"measurement": "risk of abnormal or adverse ejaculatory side effects", "setting": "[2]; 0.8 mg QD (daily)", "result": 18.1, "unit": "%"},
      {"measurement": "increase of intravaginal ejaculation latency time (IELT)", "setting": "[3]", "result": 1.14, "unit": "min"},
      {"measurement": "risk of adverse events", "setting": "[3]", "result": 2.6, "unit": "%"},
      {"measurement": "efficacy for mild to moderate BPH symptoms", "setting": "[4]; 0.2 mg QD (Shim et al.)", "result": "effective"},
      {"measurement": "therapeutic efficacy of QD dosing versus alternating day dosing", "setting": "[4]; QD vs alternating day (Soliman et al.)", "result": "clinically similar"}
    ]}
  ]
}
